# Measurements taken from US20090203634A1, “Compositions and Uses of Amooranin Compounds” (Variety Children's Hospital d/b/a Miami Children's Hospital, priority 2005, published 2009).
# Where a name gives a salt, the structure may show the parent alone. Read-outs that look alike come from different tables or passages of the source. Marks after values point to notes of the source that are not given here.
# Assays:
# [1] = system: CEM/VLB; assay: MTT cytotoxicity assay (Examples 1-5); type: cell-based, human
# Source text: (§1) Cytotoxicity Assay (Examples 1-5). […] Cell proliferation kit I (MTT) from Roche Diagnostics GmbH (Indianapolis, Ind.) was used for cytotoxicity assays and manufacturers protocol was followed for the assay.
# [2] = system: CEM; assay: MTT cytotoxicity assay (Examples 1-5); type: cell-based, human
# Source text: as §1
# [3] = system: SW620/Ad-300; assay: MTT cytotoxicity assay (Examples 1-5); type: cell-based, human; details: for IC50: mean ± SD (n = 3)
# Source text: as §1
# [4] = system: SW620; assay: MTT cytotoxicity assay (Examples 1-5); type: cell-based, human; details: mean ± SD (n = 3), read-out: AMR IC50
# Source text: Cell proliferation kit I (MTT) from Roche Diagnostics GmbH (Indianapolis, Ind.) was used for cytotoxicity assays and manufacturers protocol was followed for the assay.
# [5] = system: CEM/VLB; assay: DNA histogram analysis of cell cycle distribution; type: cell-based, human; details: AMR 0-2.5 μg/ml, 48 hours, up from 18.0% without AMR
# Method: (§2) DNA Histogram Analysis. Following drug exposure for 48 hours, cells were centrifuged and resuspended in propidium iodide-hypotonic citrate solution for 1 hour before flow cytometric analysis of cell cycle distribution (Ramachandran, C. et al. Biochem Pharmacol, 1995, 49:545-552).
# [6] = system: CEM; assay: DNA histogram analysis of cell cycle distribution; type: cell-based, human; details: AMR 0-2.5 μg/ml, 48 hours, up from 18.0% without AMR
# Method: as §2
# [7] = system: SW620/Ad-300; assay: DNA histogram analysis of cell cycle distribution; type: cell-based, human; details: AMR 0-2.5 μg/ml, 48 hours, up from 15.6% without AMR
# Method: as §2
# [8] = system: SW620; assay: DNA histogram analysis of cell cycle distribution; type: cell-based, human; details: AMR 0-2.5 μg/ml, 48 hours, up from 12.5% without AMR
# Method: as §2
# [9] = system: CEM/VLB; assay: Cellular DOX content by flow cytometry; type: cell-based, human; details: DOX 2 μg/ml with 1 and 2 μg/ml AMR
# Method: (§3) Cellular DOX Content. […] Cellular DOX fluorescence was analyzed in a Coulter Elite flow cytometer. Fluorescence emission (above 530 nm) from at least 10,000 cells were collected, amplified and scaled to generate a single parameter histogram (Ramachandran, C. et al. Biochem Phammacol, 1995, 49:545-552).
# [10] = system: CEM; assay: Cellular DOX content by flow cytometry; type: cell-based, human; details: DOX 2 μg/ml with 1 or 2 μg/ml AMR
# Method: as §3
# [11] = system: SW620/Ad-300; assay: Cellular DOX content by flow cytometry; type: cell-based, human; details: DOX 2 μg/ml with 1 and 2 μg/ml AMR
# Method: as §3
# [12] = system: SW620; assay: Cellular DOX content by flow cytometry; type: cell-based, human; details: DOX 2 μg/ml with 1 or 2 μg/ml AMR
# Method: as §3
# [13] = system: MCF-10A; assay: MTT cytotoxicity assay (Examples 6-8); type: cell-based, human; details: 0-8 μg/ml AMR for 48 hours
# Method: (§4) Cytotoxicity assay (Examples 6-8). MTT assay was used to determine drug sensitivity (Hansen, M. B. et al. J Immunol Methods, 1989, 119:203-210). Cells (1×10^4) were grown in 96-well plates and after 48 hours, the medium was replaced with new medium. The cells were incubated at 37° C. with varying concentrations of AMR for 48 hours at 37° C. Cell viability was then assayed by adding MTT dye (500 μg/ml). Six hours after incubation period, MTT containing medium was removed. The formazan crystals were dissolved in 100 μl/well dimethyl sulfoxide, and the plates were read in BIO-RAD Benchmark Microplate Reader at 570 nm wavelength. All experiments were repeated three times with three replications in each and the mean values were estimated. Student's t test was used to determine the significant difference between IC50 values.
# [14] = system: MCF-7/TH; assay: MTT cytotoxicity assay (Examples 6-8); type: cell-based, human; details: 0-8 μg/ml AMR for 48 hours
# Method: as §4
# [15] = system: MCF-7; assay: MTT cytotoxicity assay (Examples 6-8); type: cell-based, human; details: 0-8 μg/ml AMR for 48 hours
# Method: as §4
# [16] = system: MCF-10A; assay: Cell cycle analysis by flow cytometry; type: cell-based, human; details: 1 μg/ml AMR
# Method: (§5) Cell cycle analysis. The number of cells in each stage of the cell cycle was monitored by flow cytometric analysis of cellular DNA content after staining with 1 mg/ml propidium iodide (Chen, G. et al. Cancer Res, 1993, 53:2544-2547). Data was analyzed to determine the percentage of cells at each phase of the cell cycle (G0+G1, S, and G2+M).
# [17] = system: MCF-7/TH; assay: Cell cycle analysis by flow cytometry; type: cell-based, human; details: 1 μg/ml AMR, one range printed for MCF-7 and MCF-7/TH together
# Method: as §5
# [18] = system: MCF-7; assay: Cell cycle analysis by flow cytometry; type: cell-based, human; details: 1 μg/ml AMR, one range printed for MCF-7 and MCF-7/TH together
# Method: as §5
# [19] = system: MCF-10A; assay: TUNEL assay of DNA fragmentation; type: cell-based, human
# Method: (§6) Analysis of DNA fragmentation by agarose gel electrophoresis. To assess the pattern of DNA cleavage caused by AMR, agarose gel electrophoresis was performed as described by Cohen and Duke (Cohen, J. J. and Duke, R. C. J Immunol, 1984, 132:38-42). Briefly, control and drug-treated cells (2×10^6 cells) were lysed with 0.5 ml lysis buffer containing 0.2% Triton X-100 at room temperature for 30 minutes. The supernatant fractions were collected by centrifugation at 12,000×g for 30 minutes. The DNA in these fractions was precipitated overnight with 100 μl 5 M sodium chloride and 0.5 ml 2-isopropanol at −20° C. The DNA was dissolved in 20 μl of 10 mM Tris-HCl (pH 7.4) and 1 mM EDTA buffer. RNase (10 units) was added to the samples before incubating at 60° C. for 1 hour. An equal volume of loading buffer was added afterwards and the samples were subjected to electrophoresis on a 2% agarose gel in Tris borate buffer at 50 V for 3 hours. The agarose gel was stained with ethidium bromide, and DNA fragmentation pattern was visualized in a UV transilluminator. AMR-induced DNA fragmentation was also analyzed by TUNEL assay using in situ cell detection kit according to manufacturer's instructions. Briefly, cells were permeabilized in a solution containing 0.1% Triton X-100 and 0.1% (w/v) sodium citrate for 2 minutes. After washing in PBS, cells were incubated with label solution and terminal transferase. Cells were incubated without terminal deoxynucleotidyl transferase was used as negative control. DNase (1 μg/ml) treated cells incubated with label solution in the presence of terminal deoxynucleotidyl transferase (TUNEL reaction mixture) was used as positive control and the details of TUNEL assay have been described earlier (Ramachandran, C. et al. Anticancer Res, 1997, 17:3369-3376).
# [20] = system: MCF-7/TH; assay: TUNEL assay of DNA fragmentation; type: cell-based, human
# Method: as §6
# [21] = system: MCF-7; assay: TUNEL assay of DNA fragmentation; type: cell-based, human
# Method: as §6
# [22] = system: MCF-10A; assay: DNA fragmentation by agarose gel electrophoresis; type: cell-based, human
# Method: as §6
# [23] = system: MCF-7/TH; assay: DNA fragmentation by agarose gel electrophoresis; type: cell-based, human
# Method: as §6
# [24] = system: MCF-7; assay: DNA fragmentation by agarose gel electrophoresis; type: cell-based, human
# Method: as §6
# [25] = system: MCF-10A; assay: Caspase-8 (LETD) activity by flow cytometry; type: cell-based, human; details: AMR 1-8 μg/ml, 48 hours
# Method: (§7) Detection of apoptosis and caspase activity. Breast carcinoma or breast epithelial cells were incubated for 48 hours in the presence or absence of AMR (1-8 μg/ml). AMR-induced apoptosis was evaluated by Fluorescein Caspase (VAD) Activity Kit and caspase-8 (LETD) Activity Kit according to manufacturer's instructions ([…]-Calvo, M. et al. J Biol Chem, 1998, 273:32608-32613).
# [26] = system: MCF-7/TH; assay: Caspase-8 (LETD) activity by flow cytometry; type: cell-based, human; details: AMR 1-8 μg/ml, 48 hours
# Method: as §7
# [27] = system: MCF-7; assay: Caspase-8 (LETD) activity by flow cytometry; type: cell-based, human; details: AMR 1-8 μg/ml, 48 hours
# Method: as §7
# [28] = system: SW620 human tumor xenografts; assay: Xenograft studies with AMR in nude mice; type: in vivo; details: for Therapeutic ratio: Therapeutic Ratio = 100 - Tumor Growth Rate Index (GRI)
# Method: Xenograft studies with AMR in nude mice. Male athymic nude (nu/nu) mice of the BALB/c strain (4-5 weeks old) were purchased from Taconic Labs, NY. SW620 colon carcinoma cells (10^6/site) in 0.1 ml of Hank's balanced salt solution were injected subcutaneously into the right flank of the nude mice using a 21 gauge needle. When the tumors reached approximately 0.5 cm^3 size in volume (usually 14 days), chemotherapy with AMR was started involving six animals in each group with almost similar size tumors. […] AMR was dissolved in 1:1 mixture of Cremophor EL and ethanol for administration and the control treatments were doxorubicin dissolved in phosphate dissolved saline and saline alone (0 mg/kg). Tumor size (length and width) was recorded on every fifth day of treatment along with body weight and survival data. Tumor volume was calculated using the following formula: […]
# Tumor growth rate was calculated as mean V1/V0 where V1 is the volume on the evaluation day of treatment effect and V0 is that on the first day of treatment. The growth rate index and therapeutic index estimates were calculated using the following formulae:
# Therapeutic Ratio=100—Tumor Growth Rate Index (GRI)
molecule,measurement,setting,value
"CC1(C)CC[C@]2(C(=O)O)CC[C@]3(C)C(=CC[C@@H]4[C@@]5(CO)CCC(=O)C(C)(C)[C@@H]5CC[C@]43C)[C@@H]2C1 [AMR, 25-hydroxy-3-oxoolean-12-en-28-oic acid]",Modulator Index (MI = fold decrease in resistance/modulator in μM concentration),[1]; CEM/VLB,40
same,resistance to AMR,[1]; CEM/VLB versus CEM,1.9 fold
same,IC50,"[1]; CEM/VLB, mean ± SD (n = 3), read-out: AMR IC50",10.2 ± 0.11 µM
same,IC50,"[2]; mean ± SD (n = 3), read-out: AMR IC50",5.31 ± 0.02 µM
same,Modulator Index (MI = fold decrease in resistance/modulator in μM concentration),[3]; SW620/Ad-300,41.6
same,IC50,"[3]; SW620/Ad-300, read-out: AMR IC50",12.7 ± 0.27 µM
same,resistance to AMR,[3]; SW620/Ad-300 versus SW620,1.6 fold
same,IC50,[4],7.7 ± 0.15 µM
same,percentage of G2+M cells,[5],48.7%
same,percentage of G2+M cells,[6],61.1%
same,G2+M percentage,[7],52.8%
same,G2+M percentage,[8],59.5%
same,cellular DOX accumulation,[9],increased cellular DOX accumulation in a dose-dependent manner
same,cellular DOX fluorescence,[10],No significant change
same,cellular DOX accumulation,[11],increased cellular DOX accumulation in a dose-dependent manner
same,cellular DOX fluorescence,[12],No significant change
same,IC50,[13],6.9 µg/mL
same,IC50,[14],6.8 µg/mL
same,IC50,[15],3.8 µg/mL
same,G2/M phase arrest,[16],does not induce any G2/M phase arrest
same,accumulation in G2+M phase population,[17],12.4%-32.2%
same,accumulation in G2+M phase population,[18],12.4%-32.2%
same,cells with DNA fragmentation (TUNEL),"[19]; AMR 1-8 μg/ml, 48 hours",0-37.1%
same,cells with DNA fragmentation (TUNEL),"[20]; AMR 1-8 μg/ml, 48 hours",32-48.7%
same,cells with DNA fragmentation (TUNEL),"[21]; AMR 1-8 μg/ml, 48 hours",37.3-72.1%
same,DNA fragmentation,[22]; 1 μg/ml AMR for 48 hours,almost undetectable
same,DNA ladder pattern,[22]; AMR treatment for 48 hours,less distinct
same,DNA ladder pattern,[23]; 1 μg/ml AMR for 48 hours,highly visible
same,DNA ladder pattern,[23]; AMR treatment for 48 hours,distinct ladder pattern
same,DNA ladder pattern,[24]; 1 μg/ml AMR for 48 hours,highly visible
same,DNA ladder pattern,[24]; AMR treatment for 48 hours,distinct ladder pattern
same,cells with caspase activation (caspase-8 positive cells),[25],4-32.8%
same,cells with caspase activation (caspase-8 positive cells),[26],28.5-43.2%
same,cells with caspase activation (caspase-8 positive cells),[27],40.8-71%
same,Survival (%),[28]; 2 mg/kg,83.3%
same,Therapeutic ratio,[28]; 2 mg/kg,61.3**
same,Survival (%),[28]; 5 mg/kg,57.1%
same,Therapeutic ratio,[28]; 5 mg/kg,37.6**
same,Survival (%),[28]; 10 mg/kg,57.1%
same,Therapeutic ratio,[28]; 10 mg/kg,41.9**
same,tumor growth rate,"[28]; AMR 2-10 mg/kg intraperitoneal, compared to doxorubicin (2 mg/kg) or saline",significantly reduced tumor growth rate
"COc1cccc2c1C(=O)c1c(O)c3c(c(O)c1C2=O)C[C@@](O)(C(=O)CO)C[C@@H]3O[C@H]1C[C@H](N)[C@H](O)[C@H](C)O1 [DOX, Doxorubicin hydrochloride, reference compound]",resistance to DOX,[1]; CEM/VLB versus CEM,approximately 112 fold
same,IC50,"[1]; Homo sapiens, read-out: DOX IC50, CEM/VLB, 48 hours exposure",13.4 µg/mL
same,IC50,"[1]; Homo sapiens, read-out: DOX IC50, CEM/VLB, mean ± SD (n = 3)",23.1 ± 0.78 µM
same,IC50,"[2]; Homo sapiens, CCRF-CEM, read-out: DOX IC50, 48 hours exposure",0.12 µg/mL
same,IC50,"[2]; Homo sapiens, CCRF-CEM, read-out: DOX IC50, mean ± SD (n = 3)",0.23 ± 0.02 µM
same,IC50,"[3]; Homo sapiens, SW620/AD300, read-out: DOX IC50, SW620/Ad-300",28.9 ± 0.95 µM
same,resistance to DOX,"[3]; SW620/Ad-300 versus SW620, based on IC50 values",approximately 125 fold
same,Survival (%),[28]; 2 mg/kg,83.3%
DNase [reference compound],apoptotic cells (TUNEL),[19]; DNase-treated positive control,more than 95%
same,apoptotic cells (TUNEL),[20]; DNase-treated positive control,more than 95%
same,apoptotic cells (TUNEL),[21]; DNase-treated positive control,more than 95%
